Results on 34 molecules are retold here after patent US11154544B2, “Amide derivatives as Nav1.7 and Nav1.8 blockers” (RaQualia Pharma Inc., priority 2017, dated 2021).

“And” between values parts separate entries of the source, which are not always exact repeats. Equal values may be shown once.

By IC50 is commonly meant the concentration that gives 50% inhibition.

Sequence of Nav1.7 (Q15858 whole entry): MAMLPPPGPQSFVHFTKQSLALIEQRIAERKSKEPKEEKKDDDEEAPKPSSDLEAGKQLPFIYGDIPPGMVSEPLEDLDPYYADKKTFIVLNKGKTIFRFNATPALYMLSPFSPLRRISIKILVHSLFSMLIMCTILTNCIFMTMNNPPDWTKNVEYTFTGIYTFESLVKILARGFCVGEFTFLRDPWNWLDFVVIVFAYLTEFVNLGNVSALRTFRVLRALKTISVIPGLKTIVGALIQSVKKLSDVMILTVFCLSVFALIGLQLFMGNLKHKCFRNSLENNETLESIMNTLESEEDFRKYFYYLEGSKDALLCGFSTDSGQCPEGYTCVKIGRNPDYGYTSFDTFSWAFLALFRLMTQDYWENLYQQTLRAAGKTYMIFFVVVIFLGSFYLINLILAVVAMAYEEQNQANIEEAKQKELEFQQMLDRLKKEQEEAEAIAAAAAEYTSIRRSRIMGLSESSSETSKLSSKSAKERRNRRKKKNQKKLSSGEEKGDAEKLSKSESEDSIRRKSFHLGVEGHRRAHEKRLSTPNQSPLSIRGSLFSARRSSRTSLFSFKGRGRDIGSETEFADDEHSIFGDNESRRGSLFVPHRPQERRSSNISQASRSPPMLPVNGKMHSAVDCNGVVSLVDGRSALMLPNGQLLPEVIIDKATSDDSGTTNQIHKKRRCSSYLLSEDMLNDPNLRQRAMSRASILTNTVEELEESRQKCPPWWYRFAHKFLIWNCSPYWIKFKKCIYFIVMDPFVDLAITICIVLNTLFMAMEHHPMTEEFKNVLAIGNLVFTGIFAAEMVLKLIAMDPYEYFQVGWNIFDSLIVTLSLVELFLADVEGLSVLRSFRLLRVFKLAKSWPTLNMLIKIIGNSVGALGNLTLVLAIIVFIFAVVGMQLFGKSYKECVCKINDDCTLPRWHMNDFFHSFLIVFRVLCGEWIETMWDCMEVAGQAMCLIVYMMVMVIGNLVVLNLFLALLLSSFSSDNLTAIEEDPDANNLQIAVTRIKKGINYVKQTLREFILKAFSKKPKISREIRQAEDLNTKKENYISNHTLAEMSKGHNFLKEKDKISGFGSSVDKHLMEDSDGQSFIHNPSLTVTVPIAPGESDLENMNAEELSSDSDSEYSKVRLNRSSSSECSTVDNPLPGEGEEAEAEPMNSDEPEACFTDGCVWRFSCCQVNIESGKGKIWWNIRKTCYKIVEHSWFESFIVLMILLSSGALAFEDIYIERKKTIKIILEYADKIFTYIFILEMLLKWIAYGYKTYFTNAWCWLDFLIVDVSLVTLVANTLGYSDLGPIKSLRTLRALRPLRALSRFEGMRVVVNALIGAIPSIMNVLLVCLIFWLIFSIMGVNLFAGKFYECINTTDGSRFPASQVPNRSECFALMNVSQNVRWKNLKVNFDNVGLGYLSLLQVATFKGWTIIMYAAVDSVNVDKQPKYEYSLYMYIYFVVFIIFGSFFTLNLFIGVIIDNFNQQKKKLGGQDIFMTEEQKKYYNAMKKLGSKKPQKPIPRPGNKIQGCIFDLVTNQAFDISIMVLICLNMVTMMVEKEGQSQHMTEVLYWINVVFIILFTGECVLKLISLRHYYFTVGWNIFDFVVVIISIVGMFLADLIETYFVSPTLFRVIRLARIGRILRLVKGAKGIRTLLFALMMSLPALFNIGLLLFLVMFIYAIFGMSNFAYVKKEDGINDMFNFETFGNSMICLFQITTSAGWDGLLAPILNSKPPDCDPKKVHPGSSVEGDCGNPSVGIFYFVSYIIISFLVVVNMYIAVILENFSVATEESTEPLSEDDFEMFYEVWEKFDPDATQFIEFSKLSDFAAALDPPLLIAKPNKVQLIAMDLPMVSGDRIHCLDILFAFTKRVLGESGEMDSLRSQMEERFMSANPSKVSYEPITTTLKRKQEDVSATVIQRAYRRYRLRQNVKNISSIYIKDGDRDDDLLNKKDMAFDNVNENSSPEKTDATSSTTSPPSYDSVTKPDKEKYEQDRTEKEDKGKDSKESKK

One assay has as its target Nav1.7 (Homo sapiens (Human), UniProt Q15858). Briefly: EFS-FRET assay. The following applies: EFS-FRET, CHO cells expressing human Nav1.7; read-out: IC50 against Nav1.7. It is filed as cell-based. As for the experimental part:
This screen is used to determine the effects of compounds on human Nav1.7 channels, utilizing electrical field stimulation (EFS) system in 96-well plate format on FDSS (Hamamatsu Photonics) platform. The change of membrane potential is monitored with FRET dye pair, DiSBAC2(3) and PTS 18.
CHO (Chinese hamster ovary) cells expressing human Nav1.7 channels are grown in T225 flasks, in a 5% CO2 humidified incubator to about 80% confluence. Media composition consists of HAM/F^.12 with Glutamax I, 10% FCS, 100 units/mL penicillin and 100 microgram/mL hygromycin.
Seed each cell lines (1×10^5 cells/well) into 96-well plates prior to experimentation.
Incubate at 37° C. in 5% CO2, for 24 hours.
Wash each well with assay buffer (140 mM NaCl, […], 10 mM D-Glucose, 2 mM CaCl2, 1 mM MgCl2, 10 mM HEPES, pH 7.4 adjusted with NaOH) twice.
Add 1st loading solution containing 10 microM PTS18 and 0.06% Pluronic F-127 in assay buffer.
Incubate the plate at rt in dark for 1 hour. • Remove 1st loading solution and add 2nd loading solution containing 12.5 microM DiSBAC2(3), 1.25 mM Xylene Fast Yellow and 0.0075% Pluronic F-127 in assay buffer. • Place the plate under the dark at rt for 25 minutes. • Add compound solutions into the assay plate. • Set the assay plate in FDSS and place an EFS device on the plate. • Measure EFS-induced fluorescent response by FDSS.
The data are analyzed and reported as normalized ratios of intensities measured at […]. The process of calculating these ratios is performed as follows:
This analysis is performed using a computerized specific program designed for
FDSS generated data. Fluorescence ratio values are plotted using XLfit to determine an IC50 value for each, compound.
On to `Cc1cc(C(=O)NCCOc2ncc(C(F)(F)F)cc2Cl)cc(NC(=O)C(C)C)n1` [Example 35], for which the IC50 is 190 nM and < 500 nM.

In the case of `CC(=O)Nc1cc(C(=O)NCCNc2ncc(C(F)(F)F)cc2Cl)ccn1` [Example 2], the IC50 was under 500 nM. On the same count and under the same terms, with `CC(C)C(=O)Nc1cc(C(=O)NCCOc2ccnc3cc(C(F)(F)F)ccc23)ccn1` [Example 80] the figure was under 500 nM; with `CCC(=O)Nc1cc(C(=O)NC[C@@H](C)Oc2ncc(C(F)(F)F)cc2Cl)cc(C)n1` [Example 74], under 500 nM.

As for `CCC(=O)Nc1cc(C(=O)NCCOc2ccc(OC(F)(F)F)c(F)c2)ccn1` [Example 148], the IC50 is under 500 nM. Take `CC(C)C(=O)Nc1cc(C(=O)NCCOc2ncc(C(F)(F)F)cc2Cl)ccn1` [Example 13]: the IC50 is 370 nM and < 500 nM. Same read-out and setting: with `Cc1cc(C(=O)NCCOc2ncc(C(F)(F)F)cc2Cl)nc(NC(=O)C2CC2)n1` [Example 16] the figure was under 500 nM; with `CC(C)C(=O)Nc1cc(C(=O)NCCOc2ccc(OC(F)(F)F)c(F)c2)ccn1` [Example 149], under 500 nM; with `Cc1cc(C(=O)NCCOc2ccc(OC(F)(F)F)cc2Cl)cc(NC(=O)C2CC2)n1` [Example 115], under 500 nM. On to `O=C(NCCNc1ncc(C(F)(F)F)cc1Cl)c1ccnc(NC(=O)C2CC2)c1` [Example 6], for which the IC50 was under 500 nM. Turning to `Cc1cc(C(=O)N[C@H](C)COc2ncc(C(F)(F)F)cc2Cl)cc(NC(=O)C2CC2)n1` [Example 69], the half-inhibitory concentration (IC50) is under 500 nM.

In the case of `CCC(=O)Nc1cc(C(=O)NCCOc2ccc(OC(F)(F)F)cc2Cl)ccn1` [Example 114], the IC50 is under 500 nM.

For the molecule `C[C@H](COc1ncc(C(F)(F)F)cc1Cl)NC(=O)c1ccnc(NC(=O)C2CC2)n1` [Example 71], the IC50 was under 500 nM. Still for that read-out and setting: with `O=C(NCCOc1ncc(C(F)(F)F)cc1Cl)c1ncccc1Cl` [No. 1-3, reference compound] the figure was over 3000 nM; with `Cc1cc(C(=O)NCCOc2ccc(C(F)(F)F)cc2F)cc(NC(=O)C(C)C)n1` [Example 98], under 500 nM.

Take `Cc1cc(C(=O)NCCOc2ncc(C(F)(F)F)cc2Cl)nc(NC(=O)C(C)C)n1` [Example 90]: the IC50 was under 500 nM. Still for that read-out and setting: with `O=C(NCCOc1ccc2cc(C(F)(F)F)ccc2n1)c1ccnc(NC(=O)C2CC2)c1` [Example 45] the figure was under 500 nM; with `CC(=O)Nc1cc(C(=O)NCCOc2ccc(C(F)(F)F)cc2F)cc(C)n1` [Example 93], under 500 nM; with `Cc1cc(C(=O)NCCNc2ncc(C(F)(F)F)cc2Cl)cc(NC(=O)C(C)C)n1` [Example 37], under 500 nM. In the case of `O=C(NCCOc1ncc(C(F)(F)F)cc1Cl)c1ccnc(NC(=O)C2CC2)c1` [Example 14], the IC50 was under 500 nM. Still for that read-out and setting: the figure for `CC(=O)Nc1cc(C(=O)NCCOc2ccc(S(F)(F)(F)(F)F)cc2)cc(C)n1` [Example 31] is under 500 nM.

For the molecule `CCC(=O)Nc1cc(C(=O)NCCOc2ccc(S(F)(F)(F)(F)F)cc2)ccn1` [Example 32], the IC50 was under 500 nM. Same read-out and setting: with `CC(C)C(=O)Nc1cc(C(=O)NCCCOc2ncc(C(F)(F)F)cc2Cl)ccn1` [Example 123] the figure was under 500 nM; with `CC(C)C(=O)Nc1cc(C(=O)NCCOc2ccc(OC(F)(F)F)cc2Cl)ccn1` [Example 107], under 500 nM; with `CCC(=O)Nc1cc(C(=O)NCCCNc2ncc(C(F)(F)F)cc2Cl)ccn1` [Example 119], under 500 nM.

Take `O=C(NCCOc1ccc(OC(F)(F)F)c(F)c1)c1ccnc(NC(=O)C2CC2)n1` [Example 150]: the IC50 was under 500 nM. The same measure, in the same setting: the figure for `CC(=O)Nc1cc(C(=O)NCCOc2cccc(OC(F)(F)F)c2)cc(C)n1` [Example 19] is under 500 nM; for `CCC(=O)Nc1cc(C(=O)NCCOc2ccc(C(F)(F)F)cc2Cl)ccn1` [Example 21] it is under 500 nM. On the same count and under the same terms, the figure for `COc1cc(C(F)(F)F)ccc1OCCNC(=O)c1cc(C)nc(NC(C)=O)c1` [Example 128] is under 500 nM; for `CCC(=O)Nc1cc(C(=O)NCCNc2ncc(C(F)(F)F)cc2Cl)cc(C)n1` [Example 5] it is under 500 nM. Still for that read-out and setting: with `COc1cc(C(F)(F)F)ccc1OCCNC(=O)c1ccnc(NC(=O)C2CC2)c1` [Example 130] the figure was under 500 nM; with `CC(=O)Nc1cc(C(=O)NCCOc2ccc(C(F)(F)F)cc2Cl)cc(C)n1` [Example 23], under 500 nM. Regarding `CCC(=O)Nc1cc(C(=O)NCCOc2ccc(C(F)(F)F)cc2C)cc(C)n1` [Example 141], the IC50 was under 500 nM. On the same count and under the same terms, with `CC(=O)Nc1cc(C(=O)NCCSc2ncc(C(F)(F)F)cc2Cl)cc(C)n1` [Example 54] the figure was under 500 nM.

Staying with this assay, now noted: Table 1; read-out: Nav1.7 activity (IC50).
`Cc1cc(C(=O)NCCOc2ncc(C(F)(F)F)cc2Cl)cc(NC(=O)C(C)C)n1` [Example 35]: the IC50 turned out to be 190 nM.

Consider `CC(C)C(=O)Nc1cc(C(=O)NCCOc2ncc(C(F)(F)F)cc2Cl)ccn1` [Example 13], for which the concentration for half-maximal inhibition (IC50) worked out at 370 nM. Still for that read-out and setting: the figure for `O=C(NCCOc1ncc(C(F)(F)F)cc1Cl)c1ncccc1Cl` [No. 1-3, reference compound] is over 3000 nM.

A further assay deals with human Nav1.8 channels (Homo sapiens (Human), UniProt Q9Y5Y9). Briefly: FRET assay (FDSS). It is filed as cell-based.
Sequence of human Nav1.8 channels (Q9Y5Y9 whole entry): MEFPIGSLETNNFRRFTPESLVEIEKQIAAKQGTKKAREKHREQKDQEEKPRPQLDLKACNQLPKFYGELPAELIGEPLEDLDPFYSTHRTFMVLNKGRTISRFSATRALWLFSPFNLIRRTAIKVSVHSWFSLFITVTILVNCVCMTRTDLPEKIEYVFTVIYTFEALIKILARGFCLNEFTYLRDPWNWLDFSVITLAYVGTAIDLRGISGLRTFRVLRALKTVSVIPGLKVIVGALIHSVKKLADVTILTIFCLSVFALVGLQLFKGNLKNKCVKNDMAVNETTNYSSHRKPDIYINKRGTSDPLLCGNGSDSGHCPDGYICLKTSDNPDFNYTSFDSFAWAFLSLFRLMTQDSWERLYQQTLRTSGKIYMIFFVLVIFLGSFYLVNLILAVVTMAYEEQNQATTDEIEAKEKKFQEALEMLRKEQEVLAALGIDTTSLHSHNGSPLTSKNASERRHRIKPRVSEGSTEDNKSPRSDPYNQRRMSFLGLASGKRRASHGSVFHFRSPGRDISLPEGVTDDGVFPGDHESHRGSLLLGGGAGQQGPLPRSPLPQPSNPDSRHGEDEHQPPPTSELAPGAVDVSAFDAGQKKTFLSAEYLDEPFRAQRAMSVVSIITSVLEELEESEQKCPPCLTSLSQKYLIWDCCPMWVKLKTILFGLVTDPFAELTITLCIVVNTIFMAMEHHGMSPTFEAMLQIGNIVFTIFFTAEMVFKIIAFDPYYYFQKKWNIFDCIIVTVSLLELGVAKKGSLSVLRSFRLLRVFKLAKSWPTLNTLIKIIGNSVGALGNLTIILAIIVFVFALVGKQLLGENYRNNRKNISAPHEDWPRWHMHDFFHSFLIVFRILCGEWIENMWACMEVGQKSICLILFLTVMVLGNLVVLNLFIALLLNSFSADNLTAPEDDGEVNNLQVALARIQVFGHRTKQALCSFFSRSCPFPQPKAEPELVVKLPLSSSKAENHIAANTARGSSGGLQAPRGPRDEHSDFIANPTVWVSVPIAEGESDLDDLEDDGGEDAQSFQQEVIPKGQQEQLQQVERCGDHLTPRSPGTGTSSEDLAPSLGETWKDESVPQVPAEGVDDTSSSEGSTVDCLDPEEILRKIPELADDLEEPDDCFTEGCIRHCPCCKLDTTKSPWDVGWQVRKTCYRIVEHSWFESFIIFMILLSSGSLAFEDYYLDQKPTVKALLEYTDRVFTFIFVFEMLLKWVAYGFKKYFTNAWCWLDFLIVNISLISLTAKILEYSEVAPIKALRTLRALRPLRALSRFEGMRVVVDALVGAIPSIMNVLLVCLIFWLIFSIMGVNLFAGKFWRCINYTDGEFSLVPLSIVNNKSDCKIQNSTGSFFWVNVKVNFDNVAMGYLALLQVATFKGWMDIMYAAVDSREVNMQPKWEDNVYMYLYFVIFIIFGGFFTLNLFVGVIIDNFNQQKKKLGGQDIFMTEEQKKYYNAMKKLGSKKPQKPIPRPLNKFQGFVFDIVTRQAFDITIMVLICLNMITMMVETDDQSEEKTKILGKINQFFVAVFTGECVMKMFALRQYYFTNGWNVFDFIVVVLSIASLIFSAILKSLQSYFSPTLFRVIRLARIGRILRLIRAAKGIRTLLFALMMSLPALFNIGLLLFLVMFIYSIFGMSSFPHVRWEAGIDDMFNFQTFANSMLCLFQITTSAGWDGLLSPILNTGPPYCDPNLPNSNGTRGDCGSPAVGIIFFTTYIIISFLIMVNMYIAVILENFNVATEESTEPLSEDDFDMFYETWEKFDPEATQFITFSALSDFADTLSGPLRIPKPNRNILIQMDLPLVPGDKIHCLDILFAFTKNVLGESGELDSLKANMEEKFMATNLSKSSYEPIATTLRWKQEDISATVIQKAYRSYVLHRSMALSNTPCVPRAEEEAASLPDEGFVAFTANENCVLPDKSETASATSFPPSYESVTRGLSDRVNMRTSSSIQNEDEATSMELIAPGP
Details: not given
As to the method: This screen is used to determine the effects of compounds on human Nav1.8, and human Nav1.5 channels, utilizing the cell imaging technology by Hamamatsu Photonics's Functional Drug Screening System (FDSS). The changes of membrane potential are monitored with fluorescent membrane potential dye pair, DiSBAC2(3) and CC2-DMPE, using FRET technology.
HEK293 cells expressing human Nav1.8 channels or human Nav1.5 channels are grown in T225 flasks, in a 5% CO2 humidified incubator to about 80% confluence. Media composition of HEK293 cells expressing human Nav1.8 channels consists of Dulbecco's Modified Eagle Medium (high glucose), 10% fetal calf serum (FCS), 100 units/mL Penicillin, 100 microgram/mL Streptomycin, 200 microgram/mL Zeocin and 500 microgram/mL Geneticine. HEK293 cells expressing human Nav1.5 channels are maintained in Dulbecco's Modified Eagle Medium (high glucose) supplemented with 10% fetal calf serum (FCS), 100 units/mL Penicillin, 100 microgram/mL Streptomycin and 500 microgram/mL Geneticine.
Seed each cell lines (1.5×10^4 cells/well) into 384-well plates prior to experimentation.
Incubate at 37° C. in 5% CO2 for 24 hours.
Wash each well with buffer #1 (140 mM NaCl, 4.5 mM KCl, 10 mM D-Glucose, 2 mM CaCl2, 1 mM MgCl2, 10 mM HEPES, pH 7.4 adjusted with. NaOH) twice using plate washer.
Add 1st loading solution containing 7.5 microM CC2-DMPE and 0.06% Pluronic F-127 in buffer #1.
Incubate the plate at rt in dark for 0.5 hours.
Wash each well with buffer #2 (160 mM Choline, 10 mM D-Glucose, 0.1 mM CaCl2, 1 mM MgCl2, 1.0 mM HEPES, pH 7.4 adjusted with KOH) twice using plate washer.
Add 2nd loading solution containing 75 microM DiSBAC2(3), 2.5 mM Xylene Fast Yellow, 10 microM Deltamethrin or 100 microM veratridine and 0.02% Pluronic F-127 in buffer #2.
Add compound solutions into the assay plate and leave the plate for 30 minutes under the dark at rt.
Monitor the fluorescent membrane potentials before and after the addition of buffer #2 by FDSS.
The data is analyzed and reported as normalized ratios of intensities measured in the 465 nm and 575 nm channels. The process of calculating these ratios is performed as follows: FR=(FI465Max/FI575Min)−(FI465B/FI575B) [Math.2]
“FI465B”=the mean of fluorescence intensity as baseline (before Na^+ ligand addition) at 465 nm
“FI575B”=the mean of fluorescence intensity as baseline (before Na^+ ligand addition) at 575 nm
“FI465Max”=maximum fluorescence intensity at 465 nm after Na^+ stimulation
“FI575Min”=minimum fluorescence intensity at 575 nm after Na^+ stimulation
This analysis is performed using a computerized specific program designed for FDSS generated data. Fluorescence ratio values are plotted using XLfit to determine an IC50 value for each compound.
As to `Cc1cc(C(=O)NCCOc2ncc(C(F)(F)F)cc2Cl)cc(NC(=O)C(C)C)n1` [Example 35], the “activity against Nav1.8” value is “good activity”. Still for that read-out and setting: with `CC(C)C(=O)Nc1cc(C(=O)NCCOc2ncc(C(F)(F)F)cc2Cl)ccn1` [Example 13] the entry was “good activity”.
